Assays:
[1] = Stability in rat brain homogenate; format: in vitro ADME, male Sprague Dawley rats; conditions: rat brain homogenate, 1 μM, 37° C.; for half-life at 1 µM: male, Sprague Dawley
[2] = Metabolic stability in human liver microsomes (HLM); set-up: microsomal CLint / half-life: dose or concentration left out as unconfirmed; conditions: for half-life / microsomal CLint: both, human, pooled human liver microsomes, pH 7.4
5-HT2A [3] = target: T1, 5-HT2A (Homo sapiens, UniProt P28223); experiment: FLIPR Ca2+ flux agonist assay at 5-HT2A; format: cell-based; set-up: host or cells: HEK293; conditions: for 5-HT2A % Act @ Max Dose: Ca2+ flux, HEK293, max dose
5-HT2C receptor = target: T2, 5-HT2C receptor (Homo sapiens, UniProt P28335); experiment: cell-based; format: cell-based; conditions: Ca2+ flux
T2 sequence (P28335 33-458): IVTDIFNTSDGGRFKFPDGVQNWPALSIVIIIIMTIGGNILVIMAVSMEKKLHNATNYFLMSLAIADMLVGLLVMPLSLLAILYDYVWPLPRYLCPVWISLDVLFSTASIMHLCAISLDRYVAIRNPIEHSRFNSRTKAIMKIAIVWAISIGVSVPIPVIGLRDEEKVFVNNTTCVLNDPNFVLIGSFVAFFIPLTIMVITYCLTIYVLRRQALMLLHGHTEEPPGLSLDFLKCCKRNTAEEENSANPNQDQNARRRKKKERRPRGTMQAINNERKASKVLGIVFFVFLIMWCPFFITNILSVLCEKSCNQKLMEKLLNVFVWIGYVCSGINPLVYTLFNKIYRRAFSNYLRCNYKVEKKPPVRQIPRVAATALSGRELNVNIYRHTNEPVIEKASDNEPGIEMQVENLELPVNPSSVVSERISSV

5-HT1A = target: T3, 5-HT1A (Homo sapiens, UniProt P08908); experiment: FLIPR Ca2+ flux agonist assay at 5-HT1A; format: cell-based; conditions: for 5-HT1A % Act @ Max Dose: Ca2+ flux, CHO cells
T3 construct: host or cells: CHO cells
T3 sequence (P08908 1-422): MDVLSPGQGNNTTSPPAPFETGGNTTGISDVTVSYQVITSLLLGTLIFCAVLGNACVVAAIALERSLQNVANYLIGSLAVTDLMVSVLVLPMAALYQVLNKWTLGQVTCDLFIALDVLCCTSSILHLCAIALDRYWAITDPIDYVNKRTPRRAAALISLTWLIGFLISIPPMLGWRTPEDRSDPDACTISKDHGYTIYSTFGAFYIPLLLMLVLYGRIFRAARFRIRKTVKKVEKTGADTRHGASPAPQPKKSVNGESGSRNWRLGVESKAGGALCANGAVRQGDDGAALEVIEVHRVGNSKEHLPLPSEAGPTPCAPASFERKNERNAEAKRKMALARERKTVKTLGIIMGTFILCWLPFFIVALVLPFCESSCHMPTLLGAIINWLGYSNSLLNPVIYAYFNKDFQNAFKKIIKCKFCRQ

5-HT2A [4] = target: T1, 5-HT2A; experiment: 5-HT2A receptor radioligand binding ([3H]ketanserin)
Protocol: The binding affinities of disclosed compounds at the ketanserin binding site of the 5-HT2A receptor were determined in radioligand binding experiments.
Method. Affinity of the test compounds for the 5-HT2A receptor was determined in radioligand binding experiments with [^3H]ketanserin by WuXi AppTec (Hong Kong) Limited, using methods adapted from the literature and under conditions described in Table 4.

[5] = Plasma pharmacokinetics in rats after intravenous administration; conditions: for AUC(0-t) / C0 / half-life: male, Sprague Dawley, rat, plasma, iv, 1 mg/kg
5-HT2B = target: T4, 5-HT2B (Homo sapiens, UniProt P41595); experiment: FLIPR Ca2+ flux agonist assay at 5-HT2B; format: cell-based; conditions: for 5-HT2B % Act @ Max Dose: Ca2+ flux, HEK293, max dose
T4 construct: host or cells: HEK293
T4 sequence (P41595 whole entry, species assumed): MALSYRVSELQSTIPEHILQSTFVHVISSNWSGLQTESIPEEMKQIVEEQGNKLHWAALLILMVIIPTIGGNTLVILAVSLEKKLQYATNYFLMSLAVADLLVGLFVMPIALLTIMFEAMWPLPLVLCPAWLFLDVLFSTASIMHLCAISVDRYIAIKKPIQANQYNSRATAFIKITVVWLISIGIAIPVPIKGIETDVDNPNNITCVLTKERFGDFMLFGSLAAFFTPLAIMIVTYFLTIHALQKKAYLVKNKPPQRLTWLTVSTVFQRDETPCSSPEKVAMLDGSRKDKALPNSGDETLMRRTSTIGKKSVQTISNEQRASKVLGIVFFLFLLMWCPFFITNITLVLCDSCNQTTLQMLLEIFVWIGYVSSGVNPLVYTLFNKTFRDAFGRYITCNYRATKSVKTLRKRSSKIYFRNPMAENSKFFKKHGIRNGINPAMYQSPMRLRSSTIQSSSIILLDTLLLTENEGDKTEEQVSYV

T1 sequence (P28223 whole entry): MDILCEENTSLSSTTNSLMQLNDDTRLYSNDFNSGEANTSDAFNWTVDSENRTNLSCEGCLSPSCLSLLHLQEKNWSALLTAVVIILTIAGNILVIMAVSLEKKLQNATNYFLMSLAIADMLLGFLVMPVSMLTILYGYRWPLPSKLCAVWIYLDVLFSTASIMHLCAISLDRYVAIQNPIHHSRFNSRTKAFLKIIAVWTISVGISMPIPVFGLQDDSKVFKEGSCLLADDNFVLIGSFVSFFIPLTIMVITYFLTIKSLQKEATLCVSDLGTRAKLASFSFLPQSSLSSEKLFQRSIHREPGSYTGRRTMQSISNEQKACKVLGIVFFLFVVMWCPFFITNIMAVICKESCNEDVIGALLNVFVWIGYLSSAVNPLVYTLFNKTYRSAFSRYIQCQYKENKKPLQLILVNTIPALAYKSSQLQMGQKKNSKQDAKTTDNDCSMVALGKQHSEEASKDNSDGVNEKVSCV

| Compound | t1/2 [1] | % Compound Remaining (after 120 min) [1] | t1/2 ([2]; HLM 0.50 mg protein/mL, NADPH, 37° C., 60 minutes) | EC50 (5-HT2A [3]) | 5-HT2A % Act @ Max Dose (5-HT2A [3]) | EC50 (5-HT2C receptor) | 5-HT2C % Act @ Max Dose (5-HT2C receptor) | EC50 (5-HT1A) | 5-HT1A % Act @ Max Dose (5-HT1A) | Ki (5-HT2A [4]) | AUC(0-t) [5] | C0 [5] | half-life [5] | plasma half-life (in words) ([5]; rats, IV 1 mg/kg) | EC50 (5-HT2B) | 5-HT2B % Act @ Max Dose (5-HT2B) | half-life at 1 µM [1] | half-life [2] | microsomal CLint [2] |
| --- | --- | --- | --- | --- | --- | --- | --- | --- | --- | --- | --- | --- | --- | --- | --- | --- | --- | --- | --- |
| CN(C)CCc1c[nH]c2ccc(F)cc12 [Compound 5-F-DMT, reference compound] | 2.7 min | 0.0% | 4.6 min | 6.94 nM | 94.7% | 4.94 nM | 93.9% | 5720 nM | 72.9% | 181 nM | 35.5 ng·h/mL | 338 ng/mL | 4.8 min | very short half-lives | 9.71 nM | 17.6% |  |  |  |
| CCNCCc1c[nH]c2ccc(F)c(O)c12 [Compound 28, 3-(2-(ethylamino)ethyl)-5-fluoro-1H-indol-4-ol] |  | 0.4% |  | 10.5 nM | 92.60% | 69.7 nM | 99.03% | 9210 nM | 60.29% | 319 nM | 86.7 ng·h/mL | 249 ng/mL | 27.6 min |  | 38.6 nM | 19.83% | 15.4 min | 42.3 min | 32.8 µL/min/mg |
| CC(C)NCCc1c[nH]c2ccc(F)c(O)c12 [Compound 35, 5-fluoro-3-(2-(isopropylamino)ethyl)-1H-indol-4-ol] |  | 16.4% |  | 45.7 nM | 94.57% | 324 nM | 74.81% | 93800 nM | 48.74% | 446 nM | 126 ng·h/mL | 348 ng/mL | 26.4 min |  | 95.9 nM | 27.19% | 45.6 min | 45.7 min | 30.3 µL/min/mg |
